The target of test [1] is T1, human GPR40 (Homo sapiens, UniProt O14842).
T1 construct: expressed in transfected cells
As to the kind of experiment: GPR40 calcium flux assay, human GPR40. The test is classed as cell-based. As to conditions: HEK293 cells stably expressing GPR40; table does not say human or rat. The procedure, abridged:
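Cells preincubated 1 h at 37° C. in HBSS, 20 mM HEPES, 0.1% BSA, then Fluo 8 calcium dye 30 min at 37° C. and 15 min at room temperature.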

Test [2] deals with T2, Human GPR120 short form (Homo sapiens, UniProt Q5NUL3).
T2 construct: expressed in transfected cells
T2 sequence (Q5NUL3 1-361): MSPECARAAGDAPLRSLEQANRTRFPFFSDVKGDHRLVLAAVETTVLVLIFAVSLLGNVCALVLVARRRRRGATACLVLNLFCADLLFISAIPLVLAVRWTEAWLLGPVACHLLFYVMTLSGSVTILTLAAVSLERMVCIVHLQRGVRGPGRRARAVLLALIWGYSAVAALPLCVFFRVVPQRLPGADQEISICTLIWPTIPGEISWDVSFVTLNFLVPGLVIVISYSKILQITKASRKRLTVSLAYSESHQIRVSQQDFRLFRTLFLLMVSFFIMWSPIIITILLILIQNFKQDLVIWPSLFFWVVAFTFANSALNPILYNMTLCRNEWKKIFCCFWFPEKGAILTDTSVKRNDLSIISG
As to the kind of experiment: Human GPR120 calcium flux assay, Procedure Calcium A (2500 cells/well). Format: cell-based. The procedure, abridged: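 HEK293 cells stably expressing human GPR120 short isoform (NM_001195755.1), 2500 cells/well, serum-starved 1 h at 37 °C and loaded with Fluo-4 NW plus probenecid. FLIPR fluorescence read for 300 s after compound addition; response = Fmax−Fmin. EC50 from four-parameter concentration–response fit.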

Molecules are shown by their SMILES.

T1 sequence (O14842 whole entry): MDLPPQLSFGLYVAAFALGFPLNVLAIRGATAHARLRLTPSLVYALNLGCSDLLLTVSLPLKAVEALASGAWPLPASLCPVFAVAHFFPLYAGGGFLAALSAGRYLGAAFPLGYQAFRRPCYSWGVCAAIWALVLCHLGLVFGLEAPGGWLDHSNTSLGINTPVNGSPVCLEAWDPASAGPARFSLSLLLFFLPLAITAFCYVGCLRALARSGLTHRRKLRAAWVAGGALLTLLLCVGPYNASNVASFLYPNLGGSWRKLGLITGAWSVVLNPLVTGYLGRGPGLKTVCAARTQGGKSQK

One may read the EC50 as the concentration needed to bring the measured effect to its halfway point. Consider `Cc1cc(CCC(=O)O)ccc1OCC1=C(c2ccc(Cl)cc2)CCCC1` [Compound 483, 3-[4-[[2-(4-chlorophenyl)cyclohexen-1-yl]methoxy]-3-methyl-phenyl]Propanoic Acid], for which the EC50 in test [1] is 3530 nM; in test [2], 255 nM.

Take `Cc1cc(CCC(=O)O)ccc1OCC1=C(c2ccc(Cl)cc2)CCC(F)(F)C1` [Compound 467, 3-(4-((4′-chloro-4,4-difluoro-3,4,5,6-tetrahydro-[1,1′-biphenyl]-2-yl)methoxy)-3-methylphenyl)Propanoic Acid]: the EC50 in test [1] was greater than 5000 nM; in test [2] it was 199 nM.

Turning to `O=C(O)CCc1ccc(OCC2=C(c3ccc(Cl)cc3)CCC2)cc1` [Compound 153, 3-[4-[[2-(4-chlorophenyl)cyclopenten-1-yl]methoxy]phenyl]Propanoic Acid], the EC50 in test [1] came out at 2950 nM; in test [2], 319 nM.

As for `CCc1ccc(C2=C(COc3ccc(CCC(=O)O)c(F)c3F)CCC2)cc1` [Compound 25, 3-(4-((2-(4-ethylphenyl)cyclopent-1-en-1-yl)methoxy)-2,3-difluorophenyl)Propanoic Acid], the EC50 in test [1] was greater than 5000 nM; in test [2] it was 129 nM.

With `O=C(O)CCc1c(F)c(F)c(OCC2=C(c3ccc(Cl)cc3)CCC2)c(F)c1F` [Compound 122, 3-[4-[[2-(4-chlorophenyl)cyclopenten-1-yl]methoxy]-2,3,5,6-tetrafluoro-phenyl]Propanoic Acid], the values for the EC50 in test [1] and in test [2] were greater than 5000 nM and 453 nM, respectively.

For the compound `Cc1ccc(C2=C(COc3ccc(CCC(=O)O)c(C)c3C)CCC2)cc1F` [Compound 80, 3-(4-((2-(3-fluoro-4-methylphenyl)cyclopent-1-en-1-yl)methoxy)-2,3-dimethylphenyl)Propanoic Acid], the values for the EC50 in test [1] and in test [2] were greater than 5000 nM and 81 nM, respectively.

On to `Cc1ccc(C2=C(COc3ccc(CCC(=O)O)c(F)c3F)CCC2)cc1` [Compound 94, 3-(2,3-difluoro-4-((2-(p-tolyl)cyclopent-1-en-1-yl)methoxy)phenyl)Propanoic Acid], for which the results for the EC50 in test [1] and in test [2] were greater than 5000 nM and 400 nM, respectively.

Consider `O=C(O)CCc1ccc(OCC2=C(c3ccc(Cl)cc3)CCCC2)c(F)c1` [Compound 511, 3-[4-[[2-(4-chlorophenyl)cyclohexen-1-yl]methoxy]-3-fluoro-phenyl]Propanoic Acid], for which the figures for the EC50 in test [1] and in test [2] were greater than 10000 nM and 572 nM, respectively.

With `Cc1ccc(C2=C(COc3c(F)cc(CCC(=O)O)cc3F)CCC2)cc1[N+](=O)[O-]` [Compound 109, 3-(3,5-difluoro-4-((2-(4-methyl-3-nitrophenyl)cyclopent-1-en-1-yl)methoxy)phenyl)Propanoic Acid], the EC50 is greater than 5000 nM in test [1] and 959 nM in test [2].

As to `Cc1c(CCC(=O)O)ccc(OCC2=C(c3ccccc3)CCC2)c1C` [Compound 23, 3-(2,3-dimethyl-4-((2-phenylcyclopent-1-en-1-yl)methoxy)phenyl)Propanoic Acid], the EC50 was greater than 5000 nM in test [1] and 301 nM in test [2].

For the compound `Cc1c(CCC(=O)O)ccc(OCC2=C(c3cccc(Cl)c3)CCC2)c1C` [Compound 58, 3-[4-[[2-(3-chlorophenyl)cyclopenten-1-yl]methoxy]-2,3-dimethyl-phenyl]Propanoic Acid], the values for the half-maximal effective concentration (EC50) in test [1] and in test [2] were greater than 10000 nM and 546 nM, respectively.

In the case of `Cc1ccc(C2=C(COc3ccc(CCC(=O)O)c(C)c3C)CCC2)c(C)c1` [Compound 82], the concentration for a half-maximal effect (EC50) was greater than 5000 nM in test [1] and 372 nM in test [2].

As for `Cc1c(CCC(=O)O)ccc(OCC2=C(c3ccc(OC(F)(F)F)cc3)CCC2)c1C` [Compound 20, 3-(2,3-dimethyl-4-((2-(4-(trifluoromethoxy)phenyl)cyclopent-1-en-1-yl)methoxy)phenyl)Propanoic Acid], the results for the EC50 in test [1] and in test [2] were greater than 5000 nM and greater than 20000 nM, respectively.

Take `Cc1c(CCC(=O)O)ccc(OCC2=C(c3ccc(Cl)cc3)CCCC2)c1C` [Compound 474, 3-[4-[[2-(4-chlorophenyl)cyclohexen-1-yl]methoxy]-2,3-dimethyl-phenyl]Propanoic Acid]: the EC50 in test [1] was greater than 5000 nM; in test [2], 428 nM.

As for `Cc1c(CCC(=O)O)ccc(OCC2=C(c3ccc(N(C)C)cc3)CCCC2)c1C` [Compound 512, 3-[4-[[2-(4-dimethylaminophenyl)cyclohexen-1-yl]methoxy]-2,3-dimethyl-phenyl]Propanoic Acid], the concentration giving a half-maximal response (EC50) is greater than 5000 nM in test [1] and 808 nM in test [2].

With `Cc1c(CCC(=O)O)ccc(OCC2=C(c3ccccc3)CCCC2)c1C` [Compound 472, 3-[2,3-dimethyl-4-[(2-phenylcyclohexen-1-yl)methoxy]phenyl]Propanoic Acid], the values for the EC50 in test [1] and in test [2] were greater than 5000 nM and 406 nM, respectively.
